Like-named read-outs stand apart in the source and are kept apart here.
Columns and labels:
[1] = system: heat nociceptive stimulation; assay: Anti-nociceptive activity test, tail-flick method; type: in vivo, mouse; settings: for Oral ED50 / activity-peak time after the subcutaneous administration / Subcutaneous ED50 / ED50 / activity-peak time after the oral administration: mice; for Oral ED50 / Subcutaneous ED50 / ED50: at activity-peak time, parentheses = 95% confidence limit; for ED50: Mus musculus
Procedure: (1) Experimental animal, male ddy mice (Japan SLC), weighing the body weight in the range of 22 to 25 g, were used for the studies. The animals had been kept under constant conditions (room temperature 22±2° C., humidity 55±5%, 12 hours light-and-dark cycle having light time 9:00 to 21:00 and dark time 21:00 to 9:00) until used for an experiment. The animals were fed the mouse solid diet (F2, Funabashi farm. Funabashi, Japan) with unrestricted tap water intake.
SS8225-01, 02, 03 04, 05, 06, 07 and 08 as examples and SS8225-09, 10, 11 and 12 as comparison examples were used as the administered drugs. […] In addition only Liger solution was administered as an experimental control. The animals were left for 60 minutes in the plastic cage to become familiar to the environment prior to the test in which measured a latent time for each mouse before drug administration in accordance with a tail-flick method noted below. Heat was radiated to a part of each mouse tail which is 2 cm from the end of its tail. Each of heat radiation periods before beginning of tail-flick was measured as a false pain threshold. Mice which responded to the stimulation within 2.5 to 3.5 seconds were pre-selected for the test. Administration solution under one administration condition for one kind of drug was administered to one experimental animal group including 10 mice. After the body weight of each mouse was measured, each volume of the administration solution was adjusted to be 0.1 mL/10 g of mouse body weight and then the solution was administered. The administration methods were two methods of subcutaneous administration (s. c.) and oral administration (p. o.). On subcutaneous administration, the administration solution of 0.1 mL per 10 g of body weight (0.1 mL/10 g) was injected into the back of the mouse using 27 gauge needle. On oral administration, the administration solution of 0.1 mL per 10 g of body weight (0.1 mL/10 g) was administered using an oral sonde.
Heat was radiated to a part of each mouse's tail of respective experimental group, which is 2 cm from the end of its tail, at 15, 30 and 60 minutes after the drug administration according to the preset measurement interval and a latent time until respective mouse swung its tail was measured as a false pain threshold value. The maximum stimulation period (cut-off-time) was set as 10 seconds to minimize the damage to the stimulation part. The anti-nociceptive effect was evaluated quantitatively by calculating % MPE (% of maximum possible effect) according to the following formula. [formula] T1: A latent time until beginning of tail-flick before respective drug administration (seconds) T2: A latent time until beginning of tail-flick after respective drug administration (seconds) Tc: A maximum stimulation period (cut-off-time)
The graphs (FIG. 1, FIG. 3, FIG. 5, FIG. 7, FIG. 9, FIG. 11, FIG. 13, FIG. 15, FIG. 17, FIG. 19, FIG. 21, FIG. 23, FIG. 25, FIG. 27, FIG. 29, FIG. 31, FIG. 33 and FIG. 35) showing a time-course variation of % MPE were created, in which a vertical axis is an average value with a standard error (means ±S. E. M.) obtained by calculation of % MPE of respective animals of 10 mice every administration condition of respective drugs and a horizontal axis is a time after administration. After treating % MPE data of each animal of experimental groups with respective doses and % MPE data of each animal of the experimental group with a control Ringer's solution at the same measurement time every drugs using the two-way layout dispersion analysis (two-way ANOVA), the hazard-ratio of P<0.05 was decided to be a significant difference according to Bonferroni post-test.
A lasting time of anti-nociceptive activity of each drug in the present description is the lasting time of anti-nociceptive activity under the dose condition providing the longest lasting time.
ED50 is represented in the unit of mg/Kg.

[2] = system: MSU induced knee osteoarthritis pain; assay: MSU induced knee osteoarthritis pain model, hind leg paw-pressure ratio; type: in vivo, rat; set-up: key to AUC of time-course variation of anti-nociceptive activity: AUC of the time course of anti-nociceptive activity as % MPE; settings: rat, MSU knee model; for ED50: range in parentheses
Procedure: Experimental animal, male SD type rats, weighing the body weight in the range of 170 to 190 g, were used for the studies. The animals had been kept under constant conditions (room temperature 23±1° C., humidity 52±2%, 12 hours light-and-dark cycle having light time 7:00 to 19:00 and dark time 19:00 to 7:00) until used for an experiment. The animals were fed the mouse solid diet (F2, Funabashi farm. Funabashi, Japan) with unrestricted tap water intake, and kept in captivity for at least more than two days in a laboratory.
Any test drugs were dissolved in Ringer's solution (Fuso Yakuhin) to be used.
MSU was suspended with the suspension solution (10% of polyoxyethylene sorbitan mono-oleate (Tween 80: Nakarai Tesk) as 0.1 g per 1 mL. The animal was anesthetized with diethyl ether and after the surface of its left hind leg knee joint was wiped with 70% ethanol cotton, a porous administration of the suspension solution above noted was conducted into the cavity of let hind leg knee joint.
Pressures to both hind leg paw were measured using a paw-pressure measurement apparatus and recorded. Measurement time at respective times was 4.5 seconds. Calculated paw-pressure ratio (ppr) is a value calculated by dividing the pressure on the left hind leg by the pressure on the right hind leg according to the measured pressures on both hind legs.
The anti-nociceptive effect was evaluated quantitatively by calculating % MPE (% of maximum possible effect) according to the following formula. [formula]
In the formula, ppr 0 and ppr 1 are respective paw-pressure ratios on both hind legs before and after administration. ED50 value of anti-nociceptive activity was calculated using GraphPad Prism data-graph processing software version 4.0, San Diego, Calif., USA.
The strength of anti-nociceptive activity was represented by calculating the time-course variation of anti-nociceptive activity AUC using GraphPad Prism noted above.
Paw-pressure was measured twice at 4 hours after administration to provide ppr by calculation and the average of those values was both hind leg paw-pressure ratio before the drug administration. After the measurement of both hind leg paw-pressure before the drug administration, 0.1 mL of Ringer's solution or a test drug in Ringer's solution per 100 g rat body weight was orally administered, and then a paw-pressure was measured once every unit time after the oral administration.
Statistical processing was conducted using GraphPad Prism. After the two-way layout dispersion analysis, the hazard-ratio of P<0.05 was decided to be a significant difference according to Bonferroni post-test. The hazard-ratios were distinguished into less than 5% (P<0.05) and less than 1% (P<0.01) and represented as “*” and “**” in the same manner conducted for the Tail-flick method.

male ddy mouse = assay: Evaluation of acute toxicity; settings: s.c.; for Number of mice died (out of five): within 72 to 96 hours
Procedure: Mice weighing in the range of 22 to 25 g, male ddy mouse, were employed. Number of mice out of five mice in each group that died within 72 to 96 hours recorded.

[3] = s.c., doses of 0.5 mg/Kg and 0.25 mg/Kg

Iminoethyl-[DMT]-[D-Arg]-[Phe]-[N-MeβAla]-NH2 [SS8225-01]
Oral ED50 ([1]; p.o.): >10 mg/kg | activity-peak time after the subcutaneous administration ([1]; s.c.): 90 min | Subcutaneous ED50 ([1]; s.c.): 0.12 mg/kg | lasting time of anti-nociceptive activity [1, 3]: not less than 7 hours

Iminoethyl-[DMT]-[D-Met(O)]-[Phe]-[N-MeLys]-NH2 [SS8225-05]
Oral ED50 ([1]; p.o.): >10 mg/kg | activity-peak time after the subcutaneous administration ([1]; s.c.): 120 min | Subcutaneous ED50 ([1]; s.c.): 0.10 mg/kg | lasting time of anti-nociceptive activity ([1]; s.c., dose of 0.25 mg/Kg): 7 h

[DMT]-[D-Met(O)]-[Phe]-[N-MeLys]-NH2 [SS8225-10]
Oral ED50 ([1]; p.o.): >10 mg/kg | Oral ED50 ([1]; p.o., listed as Comparison Example 4): over 10 mg/Kg | activity-peak time after the subcutaneous administration ([1]; s.c.): 90 min | Subcutaneous ED50 ([1]; s.c.): 0.28 mg/kg | lasting time of anti-nociceptive activity ([1]; s.c., dose of 0.5 mg/Kg): 6 h

COc1ccc2c3c1O[C@H]1C(=O)CC[C@@]4(O)[C@@H](C2)N(C)CC[C@]314 [Oxycodone]
activity lasting-time, times longer than for morphine ([2]; oral): 0.4 times | activity peak ([2]; oral): 60 min | AUC of time-course variation of anti-nociceptive activity ([2]; oral 7.5 mg/kg): 2525 | AUC of time-course variation of anti-nociceptive activity ([2]; oral 15 mg/kg): 6363 | AUC of time-course variation of anti-nociceptive activity ([2]; oral 30 mg/kg): 10562 | ED50 ([2]; oral, %MPE, read-out: ED50 value at activity peak): 10.3 mg/kg | anti-nociceptive activities, times stronger than for morphine ([2]; oral, from ED50 of AUCs): approximately 1.8 times | ED50 ([2]; oral, read-out: ED50 of AUCs): 49.4 mg/kg | anti-nociceptive activity lasting-times, times longer than for morphine ([2]; oral, stated after ED50 at activity peak): 3.6 times | activity lasting-time ([2]; orally administered): 120 min | ED50 ([1]; po, p.o., read-out: Oral ED50): 7.82 mg/kg | ED50 ([1]; sc, s.c., read-out: Subcutaneous ED50): 1.21 mg/kg | activity-peak time after the oral administration ([1]; p.o.): 45 min | activity-peak time after the subcutaneous administration ([1]; s.c.): 30 min | lasting time of anti-nociceptive activity ([1]; p.o., dose of 20 mg/Kg): 5 h | lasting time of anti-nociceptive activity ([1]; s.c., dose of 1.75 mg/Kg): 1.5 h

Iminoethyl-[DMT]-[D-Met(O)]-[Phe]-[N-MeβAla]-NH2 [SS8225-03]
Oral ED50 ([1]; p.o.): >10 mg/kg | activity-peak time after the subcutaneous administration ([1]; s.c.): 90 min | Subcutaneous ED50 ([1]; s.c.): 0.08 mg/kg | lasting time of anti-nociceptive activity [1, 3]: 7 h

Iminoethyl-[Tyr]-[D-Met(O)]-[Phe]-[N-MeLys]-OH [SS8225-11]
Oral ED50 ([1]; p.o.): >10 mg/kg | Oral ED50 ([1]; p.o., listed as Comparison Example 5): over 10 mg/Kg | Subcutaneous ED50 ([1]; s.c.): >0.5 mg/kg | Subcutaneous ED50 ([1]; s.c., listed as Comparison Example 5): over 0.5 mg/Kg

Iminoethyl-[Tyr]-[D-Met(O)]-[Phe]-[N-MeLys]-NHCH3 [SS8225-08]
Oral ED50 ([1]; p.o.): >10 mg/kg | activity-peak time after the subcutaneous administration ([1]; s.c.): 90 min | Subcutaneous ED50 ([1]; s.c.): 0.1 mg/kg | lasting time of anti-nociceptive activity ([1]; s.c., dose of 0.25 mg/Kg): 5 h

Iminoethyl-[DMT]-[D-Arg]-[Phe]-[N-MeLys]-OH [SS8225-12]
Oral ED50 ([1]; p.o.): >10 mg/kg | Oral ED50 ([1]; p.o., listed as Comparison Example 6): over 10 mg/Kg | Subcutaneous ED50 ([1]; s.c.): >0.5 mg/kg | Subcutaneous ED50 ([1]; s.c., listed as Comparison Example 6): over 0.5 mg/Kg

[DMT]-[D-Arg]-[Phe]-[N-MeLys]-NH2 [SS8225-09]
Oral ED50 ([1]; p.o.): >10 mg/kg | Oral ED50 ([1]; p.o., listed as Comparison Example 3): over 10 mg/Kg | activity-peak time after the subcutaneous administration ([1]; s.c.): 90 min | Subcutaneous ED50 ([1]; s.c.): 0.44 mg/kg | lasting time of anti-nociceptive activity ([1]; s.c., dose of 1 mg/Kg): 5 h

Iminoethyl-[Tyr]-[D-Met(O)]-[Phe]-[N-MeLys]-NH2 [SS8225-06]
activity-peak time after the oral administration ([1]; p.o.): 120 min | Oral ED50 ([1]; p.o.): 6.02 mg/kg | activity-peak time after the subcutaneous administration ([1]; s.c.): 90 min | Subcutaneous ED50 ([1]; s.c.): 0.18 mg/kg | lasting time of anti-nociceptive activity ([1]; p.o., dose of 10 mg/Kg): not less than 17 hours | lasting time of anti-nociceptive activity ([1]; s.c., dose of 0.25 mg/Kg): 5 h

Iminoethyl-[Tyr]-[D-Arg]-[Phe]-[N-MeβAla]-NH2 [SS8225-02]
activity-peak time after the oral administration ([1]; p.o.): 240 min | Oral ED50 ([1]; p.o.): 4.0 mg/kg | activity-peak time after the subcutaneous administration ([1]; s.c.): 90 min | Subcutaneous ED50 ([1]; s.c.): 0.06 mg/kg | lasting time of anti-nociceptive activity ([1]; p.o., dose of 10 mg/Kg): 10 h | lasting time of anti-nociceptive activity ([1]; s.c., dose of 0.125 mg/Kg): 6 h

CC(=N)N[C@@H](Cc1ccc(O)cc1)C(=O)N[C@H](CC[S+](C)[O-])C(=O)N[C@@H](Cc1ccccc1)C(=O)N(C)CCC(N)=O (stereo partly drawn) [SS8225-04, Iminoethyl-[Tyr]-[D-Met(O)]-[Phe]-[N-MeβAla]-NH2]
Lethality (%) (male ddy mouse; dosage 6.25 mg/Kg (125 times the ED50)): 0% | Number of mice died (out of five) (male ddy mouse; dosage 6.25 mg/Kg): 0 | Lethality (%) (male ddy mouse; dosage 25 mg/Kg (500 times the ED50)): 0% | Number of mice died (out of five) (male ddy mouse; dosage 25 mg/Kg): 0 | Lethality (%) (male ddy mouse; dosage 50 mg/Kg (1000 times the ED50)): 20% | Number of mice died (out of five) (male ddy mouse; dosage 50 mg/Kg): 1 | Lethality (%) (male ddy mouse; dosage 100 mg/Kg (2000 times the ED50)): 20% | Number of mice died (out of five) (male ddy mouse; dosage 100 mg/Kg): 1 | acute toxicity (male ddy mouse; mice): satisfactorily low

Reference: US20080009448A1, “Peptide Derivative” (priority 2006, published 2008)
